These results are taken from ChEMBL document CHEMBL3392975, “Design and nuclear magnetic resonance (NMR) structure determination of the second extracellular immunoglobulin tyrosine kinase A (TrkAIg2) domain construct for binding site elucidation in drug discovery” (J Med Chem, 2015).

For assay [1], the target named is T1, High affinity nerve growth factor receptor (Homo sapiens, UniProt P04629). In words: Binding affinity to T292 residue of human recombinant TrkAIg2-NMR construct expressed in Escherichia coli by 1H-15N HSQC NMR spectroscopy.
For assay [2], the target named is T1, High affinity nerve growth factor receptor. In words: Binding affinity to V305 residue of human recombinant TrkAIg2-NMR construct expressed in Escherichia coli by 1H-15N HSQC NMR spectroscopy.
Assay [3] has the same target. The experiment in a line: Binding affinity to C345 residue of human recombinant TrkAIg2-NMR construct expressed in Escherichia coli by 1H-15N HSQC NMR spectroscopy.
Assay [4] has the same target. The experiment in a line: Binding affinity to F303 residue of human recombinant TrkAIg2-NMR construct expressed in Escherichia coli by 1H-15N HSQC NMR spectroscopy.
Assay [5] has the same target. The experiment in a line: Displacement of [125I]NGF from full length human TrkA expressed in HEKN3S cells by gamma counting based radioligand competition assay. The assay is classed as cell-based. Background: In a radioligand displacement assay an active substance lowers the binding of a labelled ligand.
The target is the same in assay [6]. The experiment in a line: Antagonist activity at full length glycosylated human TrkA expressed in HEKN3S cells assessed as reduction in NGF-induced ERK 42/44 phosphorylation incubated for 5 mins by automated immunofluorescence assay. It is filed as cell-based.

T1 sequence (P04629 whole entry): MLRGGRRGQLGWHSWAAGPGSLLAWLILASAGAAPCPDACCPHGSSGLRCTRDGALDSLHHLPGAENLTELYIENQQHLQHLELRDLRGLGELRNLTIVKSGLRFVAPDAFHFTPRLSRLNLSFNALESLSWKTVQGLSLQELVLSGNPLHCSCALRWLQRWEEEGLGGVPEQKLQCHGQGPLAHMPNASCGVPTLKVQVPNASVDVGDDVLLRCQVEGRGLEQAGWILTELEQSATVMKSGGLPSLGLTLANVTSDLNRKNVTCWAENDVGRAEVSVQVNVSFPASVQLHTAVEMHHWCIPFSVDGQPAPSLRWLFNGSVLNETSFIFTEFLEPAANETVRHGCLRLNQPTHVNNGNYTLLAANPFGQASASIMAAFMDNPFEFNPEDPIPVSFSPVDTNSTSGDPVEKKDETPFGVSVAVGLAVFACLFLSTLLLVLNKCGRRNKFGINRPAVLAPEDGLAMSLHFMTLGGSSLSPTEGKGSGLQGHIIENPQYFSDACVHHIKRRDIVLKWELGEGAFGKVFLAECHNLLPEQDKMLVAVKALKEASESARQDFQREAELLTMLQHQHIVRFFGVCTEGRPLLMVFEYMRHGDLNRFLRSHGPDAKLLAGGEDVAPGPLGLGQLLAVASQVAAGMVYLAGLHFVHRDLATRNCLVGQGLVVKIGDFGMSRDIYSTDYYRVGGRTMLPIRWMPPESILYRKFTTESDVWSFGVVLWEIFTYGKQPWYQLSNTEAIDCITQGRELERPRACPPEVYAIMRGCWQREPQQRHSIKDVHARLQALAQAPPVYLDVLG

A word on the Kd: it is the concentration at which binding is half-saturated. By IC50 is commonly meant the concentration needed to halve the response being measured. A high value points to weaker potency. In general, EC50 refers to the concentration that produces a half-maximal response. For the compound `CN(C)CCC=C1c2ccccc2CCc2ccccc21` [AMITRIPTYLINE], the Kd in assay [1] was found to be 1.8 mM; in assay [2] it was 2.1 mM; in assay [3] it was 2.1 mM; in assay [4], 2.2 mM. The same compound came in with a half-maximal inhibitory concentration (IC50) in assay [5] of 0.06 mM. Besides, the 50% effective concentration (EC50) in assay [6] is 0.086 mM.
